In one assay the target is T1, IRAK1 (Homo sapiens, UniProt P51617).
T1 construct: DNA label for qPCR read-out (T7 phage fusion or DNA tag); purchased Eurofins DiscoverX Corporation; host or cells: T7 phage in E. coli (BL21-derived) or HEK-293
The experiment in a line: KINOMEscan competition binding, IRAK1. As to conditions: 10 µM compound; for remaining binding at 10 µM: lower = stronger binding, read-out: IRAK1 %Ctrl @ 10000nM (POC). How it is done:
The KINOMEscan screening platform (Eurofins DiscoverX Corporation) was performed using active site-directed competition binding assay to quantitatively measure interactions between BK40143 and BK40197 and more than 450 human kinases and disease relevant mutant variants. […] Screening “hits” are identified by measuring the amount of kinase captured in test (BK40143 and BK40197) versus control samples by using a quantitative and ultra-sensitive qRT-PCR method that detects the associated DNA label. BK40143 and BK40197 were screened at 10 µM concentration, and results for primary screen binding interactions were reported as “% Ctrl” (POC), where lower numbers indicate stronger hits and calculated as follows: [test compound signal−positive control signal/negative control signal−positive control signal]×100
negative control = DMSO (100% Ctrl)
positive control = control compound (0% Ctrl)
Based on screening data from of profiled compounds, a proportional relationship between primary screening results and corresponding compound/target affinities can be described as binding constants (Kd values) for the indicated ranges of POC values with tighter binding (higher affinity) interactions associated with lower POC values and weaker binding (lower affinity) associated with higher POC values. Briefly, kinase-tagged T7 phage strains were grown in parallel in 24-well blocks in an E. coli host derived from the BL21 strain. E. coli were grown to log-phase and infected with T7 phage from a frozen stock (multiplicity of infection = 0.4) and incubated with shaking at 32°C until lysis (90–150 min). The lysates were centrifuged (6,000g) and filtered (0.2 μm) to remove cell debris. The remaining kinases were produced in HEK-293 cells and subsequently tagged with DNA for qRT-PCR detection. Streptavidin-coated magnetic beads were treated with biotinylated small molecule ligands for 30 min at RT to generate affinity resins for kinase assays. The liganded beads were blocked with excess biotin and washed with blocking buffer (1% BSA, 0.05% Tween 20, 1 mM DTT; SeaBlock [Pierce]) to remove unbound ligand and to reduce non-specific phage binding. Binding reactions were assembled by combining kinases, liganded affinity beads, and test compounds in 1x binding buffer (20% 0.17x PBS, 0.05% Tween 20, 6 mM DTT; SeaBlock). Test compounds were prepared as 100x stocks in 100% DMSO and directly diluted into the assay. All reactions were performed in polypropylene 384-well plates in a final volume of 0.02 ml. The assay plates were incubated at RT with shaking for 1 h and the affinity beads were washed with wash buffer (1x PBS, 0.05% Tween 20). […] The kinase concentration in the eluates was measured by qRT-PCR.

In another assay the test system is phospho-c-KIT. The assay can be described thus: Western blot for phospho-c-KIT in brain lysates. The class given is in vivo, mouse. As to conditions: TgAPP mice; BK40143 5 mg/kg, BK40197 45 mg/kg; vs DMSO. The text has this:
c-KIT is responsible for mast cell development and homeostasis ([Lake et al, 1978]; [Linnekin, 1999]; [Kitamura et al, 2006]). TKs are the central driving force for processes leading to mast cell activation ([Parravicini et al, 2002]; [Gomez et al, 2005]). Multiple receptors are capable of mediating or modifying mast cell activation ([Kraft & Kinet, 2007]; [Kuehn & Gilfillan, 2007]), the major receptor responsible being FcεRI, the high affinity receptor for immunoglobulin E (IgE) ([Rivera & Gilfillan, 2006]). Mast cells are tissue-resident cells of hematopoietic lineage which are derived from CD13^+CD34^+KIT(CD117)^+ bone marrow pluripotent progenitors ([Kirshenbaum et al, 1999]). Although mast cells play an important role in the innate immune system ([Marshall, 2004]; [Galli et al, 2005]), these cells are also responsible for the detrimental exaggerated reactions to antigen ([Galli et al, 2008]) that follow the release of potent inflammatory mediators as a consequence of receptor-mediated mast cell activation ([Metcalfe et al, 1997]). The progression of these cells to fully mature mast cells is dependent on c-KIT activation which occurs because of stem cell factor-induced c-KIT dimerization and auto-phosphorylation ([Kirshenbaum et al, 1999]). […]
Brain hemispheres from treated and untreated animals were lysed in 1x STEN buffer and protein concentrations were measured via BCA assay. […]
A general note: Immunoblotting shows a protein as a band on a membrane.

This note sets out measurements from publication PMC11249953, “c-KIT inhibitors reduce pathology and improve behavior in the Tg(SwDI) model of Alzheimer’s disease” (Life Science Alliance, 2024).

What is called inhibition is the percentage by which the read-out fell short of the control.

T1 sequence (P51617 whole entry, the tested form may be a part): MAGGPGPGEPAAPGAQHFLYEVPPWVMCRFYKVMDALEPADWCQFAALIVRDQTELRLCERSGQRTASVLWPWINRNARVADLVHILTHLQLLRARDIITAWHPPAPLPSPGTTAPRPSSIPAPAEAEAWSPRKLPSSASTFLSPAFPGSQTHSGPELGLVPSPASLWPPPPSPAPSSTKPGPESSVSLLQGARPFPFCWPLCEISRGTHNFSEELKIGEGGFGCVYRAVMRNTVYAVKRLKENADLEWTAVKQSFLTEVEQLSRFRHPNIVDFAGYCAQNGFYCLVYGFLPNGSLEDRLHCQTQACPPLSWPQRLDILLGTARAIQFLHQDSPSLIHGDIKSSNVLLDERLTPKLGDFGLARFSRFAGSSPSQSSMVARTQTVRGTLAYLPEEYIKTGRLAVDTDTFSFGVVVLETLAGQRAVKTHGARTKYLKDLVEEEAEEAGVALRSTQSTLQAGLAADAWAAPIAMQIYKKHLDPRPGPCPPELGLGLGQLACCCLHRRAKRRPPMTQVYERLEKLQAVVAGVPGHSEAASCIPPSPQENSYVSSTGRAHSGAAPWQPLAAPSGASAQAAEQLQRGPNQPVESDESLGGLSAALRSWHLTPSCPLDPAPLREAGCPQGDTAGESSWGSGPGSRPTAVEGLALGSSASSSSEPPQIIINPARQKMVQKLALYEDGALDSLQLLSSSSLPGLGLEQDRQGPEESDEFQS

As to `Cc1cccc(-c2cc3nccc(Nc4ccccc4)c3s2)c1` [BK40143], on IRAK1, the inhibition at 10 µM was determined as 54% and the remaining binding at 10 µM was 46%. The “phospho-c-KIT levels in brain (Western blot)” value in the assay on phospho-c-KIT is given as “significant decrease in phospho-c-KIT levels”.
With `Cc1cccc(-c2cc3nccc(N4CCOCC4)c3s2)c1` [BK40197], at IRAK1, at 10 µM the inhibition was 94.7% and the remaining binding at 10 µM was 5.3%. In the assay on phospho-c-KIT, the “phospho-c-KIT levels in brain (Western blot)” value is reported as “similar, albeit not statistically significant, trend”.
